The series in a line: solvent given as SMILES.

From the Deep4Chem optical property database come the findings set out here.

SMILES strings stand for the structures.

Take `CN(C)c1ccc(C2=Nc3sc4cc(F)ccc4[n+]3[B-](F)(F)O2)cc1`: the absorption maximum amounted to 425 nm (in C1CCOC1); 422 nm (in CC#N); 426 nm (in CC(C)=O); 423 nm (in Cc1ccccc1); 425 nm (in ClCCl).
Consider `O=[N+]([O-])c1ccc([N+]2=Cc3ccc4c5c(ccc4c3O[B-]2(c2ccccc2)c2ccccc2)C=[N+](c2ccc([N+](=O)[O-])cc2)[B-](c2ccccc2)(c2ccccc2)O5)cc1`, for which the absorption maximum is 536 nm (in Cc1ccccc1) and 541 nm (in ClCCl).
In the case of `CCOC(=O)COc1ccc(/C=C/C2=C3C(C)=CC(C)=[N+]3[B-](F)(F)n3c2c2ccccc2c3-c2[nH]c(C)cc2C)cc1`, the absorption maximum (in ClCCl) is reported as 608 nm.
The compound `N#Cc1ccc(N)c(/C=C/C(F)(F)F)c1` returned an absorption maximum (in C1CCOC1) of 348 nm.
Regarding `c1ccc(-c2oc(-c3ccccc3)c3ccccc23)cc1`, the absorption maximum (in C1CCCCC1) is given as 411 nm; the absorption maximum (in C1CCOC1) came out at 413 nm; the absorption maximum (in CC#N) turned out to be 411 nm; the absorption maximum (in CCO) is recorded as 411 nm; the absorption maximum (in CN(C)C=O) turned out to be 415 nm; the absorption maximum (in CS(C)=O) is 416 nm. For the same compound, the absorption maximum (in Cc1ccccc1) was determined as 414 nm.
`CC(C)[Si](C#Cc1c2ccccc2c(C#C[Si](C(C)C)(C(C)C)C(C)C)c2nc3c4ccccc4c(=O)c4ccccc4c3nc12)(C(C)C)C(C)C` registered an absorption maximum (in ClCCl) of 509 nm.
Under “in ClC(Cl)Cl”, `CC[Si](C#Cc1c2c(=O)c3ccccc3c2c(C#C[Si](CC)(CC)CC)c2c(=O)c3ccccc3c12)(CC)CC` came in with an absorption maximum of 522 nm.
Under “in ClC(Cl)Cl”, `COc1ccc(-n2c3c4ccccc4nc(-c4ccc(C#N)cc4)c3c3c2c2c(-c4ccc(C#N)cc4)nc4ccccc4c2n3-c2ccc(OC)cc2)cc1` yielded an absorption maximum of 315 nm.
Regarding `CCOC(=O)c1cc(C(=O)OCC)c2ccccc2n1`, the absorption maximum (in CCO) came out at 319 nm.
`C=CCOc1nnc(OCCC(F)(F)C(F)(F)C(F)(F)C(F)(F)C(F)(F)C(F)(F)C(F)(F)C(F)(F)F)nn1` gave an absorption maximum (in ClCCl) of 526 nm and an absorption maximum (in OCC(F)(F)F) of 512 nm.
Take `S=C1CCCCC1`: the absorption maximum (in CCO) is given as 495 nm.
In turn, `O=CC1=Cc2cocc2C=C(C=O)C1` yielded an absorption maximum (in ClC(Cl)Cl) of 303 nm.
As to `N#Cc1c(-n2c3ccc(I)cc3c3cc(I)ccc32)c(-n2c3ccc(I)cc3c3cc(I)ccc32)c(C#N)c(-n2c3ccc(I)cc3c3cc(I)ccc32)c1-n1c2ccc(I)cc2c2cc(I)ccc21`, the absorption maximum (in Cc1ccccc1) is 361 nm.
In the case of `N#Cc1cc2nc3c(nc2cc1C#N)C1c2ccc(N(c4ccccc4)c4ccccc4)cc2C3c2ccc(N(c3ccccc3)c3ccccc3)cc21`, the absorption maximum is, setting by setting: (in C1CCCCC1) 428 nm; (in CC#N) 410 nm; (in Cc1ccccc1) 420 nm; (in ClCCl) 428 nm.
In the case of `C[Si](C)(c1cccc2cc3ccccc3cc12)[Si](C)(C)c1cccc2cc3ccccc3cc12`, the absorption maximum (in C1CCCCC1) came out at 385.82 nm.
With `COc1ccc(C2=CC(c3ccc(OC)cc3)=[O+][B-](C(C)=O)(C(C)=O)O2)cc1`, the absorption maximum reads like this: (in CC#N) 410 nm; (in ClC(Cl)(Cl)Cl) 405 nm.
As for `COc1ccc(C2=N/C(=C\c3ccc(C#N)cc3)C(=O)N2)cc1OC`, the absorption maximum (in C1COCCO1) was found to be 405 nm.
In the case of `CN(C)c1ccc(-c2nc3cnccc3[nH]2)cc1`, the absorption maximum is reported as 327 nm (in C1CCCCC1); 332 nm (in C1CCOC1); 331 nm (in C1COCCO1); 335 nm (in CC#N); 339 nm (in CCCCO); 339 nm (in CCCO). Moreover, the absorption maximum is on record as 340 nm (in CCO); 332 nm (in CCOC(C)=O); 328 nm (in CCOCC); 341 nm (in CO); 335 nm (in O).
On to `COc1ccc(-c2cnc(-c3cccnc3)o2)cc1OC`, for which the absorption maximum (in ClCCl) came to 330 nm.
For the compound `O=[N+]([O-])c1ccc(C#Cc2ccc3ccccc3c2)cc1`, the absorption maximum came out at 338 nm (in ClC(Cl)Cl) and 339 nm (in ClCCl).
Take `CCCCCCc1ccc(/C=C/c2ccc(CCCCCC)s2)s1`: under “in Cc1ccccc1”, the absorption maximum worked out at 356 nm.
Under “in ClC(Cl)Cl”, `F[B-]1(F)n2c(ccc2-c2cccs2)C(c2ccc(Br)cc2)=C2C=CC(c3cccs3)=[N+]21` registered an absorption maximum of 622 nm.
With `c1ccc(-c2nc(-c3ccccc3)n3ccccc23)cc1`, the absorption maximum is, setting by setting: (in C1CCCCC1) 302 nm; (in CC#N) 305 nm; (in CO) 301 nm; (in ClC(Cl)Cl) 308 nm; (in ClCCl) 385 nm; (in O) 305 nm.
The compound `C(=C\c1ccccc1)/c1ccccc1` yielded an absorption maximum (in CC#N) of 307 nm.
As for `Cc1cc(-c2ccc(N(c3ccccc3)c3ccccc3)cc2)c2nsnc2c1-c1ccc(C(C)(C)C)cc1`, where the note is “in ClCCl”, the absorption maximum is 418 nm.
`N#Cc1c(N2CCCCC2)cc(-c2ccc(O)cc2)c2c1-c1cccc3cccc-2c13` had an absorption maximum (in O) of 432 nm.
In the case of `Cc1ccc(C2=C3C=C(I)C(I)=[N+]3[B-](F)(F)n3c2cc(I)c3I)cc1`, the absorption maximum runs as follows: (in C1CCCCC1) 581 nm; (in CC#N) 571 nm; (in CCO) 577 nm; (in CCOC(C)=O) 573.5 nm; (in CO) 574.5 nm; (in OCC(F)(F)F) 569 nm.
For `N#C/C(=C\c1ccc(C#N)cc1)c1nc(-c2ccccc2)c(-c2ccccc2)s1`, the absorption maximum (in CC#N) is 379 nm.
In the case of `Cc1ccc(C)c(C2=C3C=CC(=[N+](C)C)C=C3[Si](C)(C)c3cc(N(C)C)ccc32)c1`, the absorption maximum (in O) came out at 646 nm.
On to `Cc1cc(-c2nc(-c3ccccc3)nc(-c3ccccc3)n2)cc(C)c1N1c2ccccc2CCc2ccccc21`, for which the absorption maximum (in Cc1ccccc1) stood at 392.74 nm.
Still for that read-out and setting: for `Cc1cc(C)c(B(c2ccccc2N2c3ccccc3Oc3ccccc32)c2c(C)cc(C)cc2C)c(C)c1` the value was 445 nm.
On to `CN(C)c1cc(C#N)c(N(C)C)c(C#N)c1`, for which the absorption maximum by setting is: (in C1CCCCC1) 387.45 nm; (in C1CCOC1) 390.47 nm; (in C1COCCO1) 391.08 nm; (in CC1COC(=O)O1) 394.48 nm; (in CC#N) 390.93 nm; (in CC(C)=O) 389.86 nm. Further, the absorption maximum came to 386.7 nm (in CC(C)OC(C)C); 391.08 nm (in CCC#N); 385.21 nm (in CCC(C)C); 386.7 nm (in CCCCCC); 393.39 nm (in CCCCCCCCO); 388.5 nm (in CCCCCOCCCCC). The absorption maximum by setting is: (in CCCCOC(C)=O) 389.86 nm; (in CCCCOCCCC) 387.6 nm; (in CCCOCCC) 389.86 nm; (in CCO) 391.7 nm; (in CCOC(C)=O) 389.71 nm; (in CCOCC) 390.62 nm. The absorption maximum (in CN(C)C=O) amounted to 393.55 nm; the absorption maximum (in CO) stood at 392.31 nm; the absorption maximum (in CS(C)=O) stood at 396.83 nm; the absorption maximum (in Cc1ccccc1) is reported as 395.26 nm; the absorption maximum (in ClCCCl) amounted to 394.48 nm; the absorption maximum (in ClCCl) was found to be 397.3 nm. The absorption maximum reads like this: (in N#Cc1ccccc1) 399.36 nm; (in O) 386.85 nm; (in OCC(O)CO) 403.39 nm; (in c1ccccc1) 395.73 nm.
`C1=CC2C=c3c(cc4cccc5cc6ccccc6c3c45)C3=c4ccccc4=CC(=C1)C32` (centres undefined) returned an absorption maximum (in ClCCl) of 592 nm.
Consider `O=[N+]([O-])c1ccc(N/C=C/C=[NH+]c2ccc([N+](=O)[O-])cc2)cc1`, for which the absorption maximum (in CS(C)=O) is 388 nm.
On to `CCC(C)(C)c1ccc(-c2ccc(-c3ccccc3)cc2)cc1`, for which, where the note is “in C1COCCO1”, the absorption maximum is on record as 287 nm.
The compound `c1cc2ccc1-c1ccc(cc1)-c1ccc(s1)-c1ccc(cc1)-c1ccc(cc1)-c1ccc(s1)-c1ccc(cc1)-c1ccc(cc1)-c1ccc(s1)-c1ccc(cc1)-c1ccc(cc1)-c1ccc-2s1` registered an absorption maximum (in C1CCOC1) of 354 nm.
Compound `CCCCCCN1C(=O)c2cccc3c(-c4ccc(-c5cccs5)s4)ccc(c23)C1=O` showed an absorption maximum (in ClC(Cl)Cl) of 409 nm.
For the setting “in ClCCl”, `CC[C@H](C)COc1ccc(C2=C3C(C)=CC(C)=[N+]3[B-](F)(F)n3c(C)cc(C)c32)cc1` came in with an absorption maximum of 501 nm.
As for `Cc1cc(N2c3ccccc3C(C)(C)c3ccccc32)ccc1-c1cc(-c2ccc(N3c4ccccc4C(C)(C)c4ccccc43)cc2C)ncn1`, the absorption maximum (in Cc1ccccc1) is 375.94 nm.
With `CCOC(=O)CSc1nc(-c2ccccc2)c(C)c(C#N)c1C#N`, the absorption maximum by setting is: (in C1COCCO1) 350 nm; (in CC#N) 365 nm; (in CCO) 367 nm; (in CCOC(C)=O) 366 nm; (in ClC(Cl)Cl) 376 nm; (in c1ccccc1) 372 nm.
For the compound `CCOC(=O)C(C(=O)OCC)C1=[N+]2C(=C(c3ccc(C)cc3)c3ccc(Cl)n3[B-]2(F)F)C=C1`, the absorption maximum turned out to be 514 nm (in C1CCCCC1); 511 nm (in C1CCOC1); 509 nm (in CCOC(C)=O); 508 nm (in CO); 515 nm (in Cc1ccccc1); 513 nm (in ClC(Cl)Cl).
`COc1ccc2c(-c3nc(-c4ccccc4F)no3)cc(=O)oc2c1` had an absorption maximum (in CCO) of 333 nm and an absorption maximum (in ClC(Cl)Cl) of 339 nm.
For `N#Cc1c(N2CCCC2)cc(-c2ccccc2)c2c1-c1ccccc1C2=O`, the absorption maximum (in C1CCOC1) amounted to 392 nm.
Consider `c1ccc(C[n+]2cc3ccc4c[n+](Cc5ccccc5)cc5ccc(c2)c3c45)cc1`, for which the absorption maximum (in CC#N) is given as 421 nm.
